Columns and labels:
[1] = system: sub-genomic HCV NS3-NS5B replicon of genotype 1a in Huh-7 cells; test: Replicon Luciferase Cell Based Assay, genotype 1a; design: species or system HCV genotype 1a; conditions: Hepatitis C virus, Huh-7, 48 hours
Procedure: (§1) A 10 mM stock solution in DMSO of each test compound was further diluted in DMSO in the first row of a 384-well, V-bottom microplate, to give 100 times the top concentration of the required dilution series. Dilutions of compound were prepared in 1:3 serial dilutions from the first row onwards robotically. A robot was also used to transfer 0.5 μL volumes from each dilution well into wells of white 384-well assay plates (Nunc #164610). Control wells received 0.5 μL of DMSO alone. Plates were made in duplicate for measuring HCV replication and cytotoxicity in the replicon cell lines.
(§2) Suspensions were prepared from cultures of Huh-7 cells stably transfected with sub-genomic HCV NS3—NS5B replicons of either genotype 1b (the ET subline described by Pietschmann, T., Lohmann, V., Kaul, A., Krieger, N., Rinck, G., Rutter, G., Strand, D. & Bartenschlager, R., Journal of Virology, 2002, 76, 4008-4021) or genotype 1a linked to a firefly luciferase reporter gene. Monolayers nearing confluency were stripped from growth flasks with versene-trypsin solution and the cells re-suspended in assay medium comprising DMEM (Invitrogen #11965-092) supplemented with 5% v/v foetal calf serum, 1% v/v non-essential amino acids solution, 100 units/ml penicillin, 100 μg/ml streptomycin and 2 mM GlutaMAX-1. 50 μL of suspension containing 5,000 cells of either genotype 1b or genotype 1a luciferase replicon were added to all wells, except medium controls, of the assay plate with a Multidrop Combi (Thermo Scientific Corporation) and the plate incubated for 48 hours at 37° C. in a 5% CO2 atmosphere. A solution of Steady-Glo cytolytic buffer/luciferase substrate (Promega #E2550) was prepared according to the manufacturer's instructions, and 20 μL were added to each well with a Multidrop Combi. To measure cytotoxicity, a solution of CellTiter-Glo Luminescent Cell Viability Assay reagent (Promega #G7573) was prepared according to the manufacturer's instructions, and 20 ul were added to each well with a Multidrop Combi. The plates were then read for luminescence on an Envision Multilabel Reader (Perkin Elmer)
(§3) Potency: The luminescence values from all compound-free wells containing cells were averaged to obtain a positive control value. The mean luminescence value from the compound-free wells that had received no cells was used to provide the negative (background) control value. After the subtraction of the mean background from all values, the readings from wells at each compound concentration were expressed as a percentage of the positive control signal. The quantifiable and specific reduction of luciferase signal in the presence of a drug is a direct measure of replicon inhibition. The BioAssay application and XC50 module were used to plot the curve of percentage inhibition against compound concentration and derive the 50% inhibitory concentration (IC50) for the compound.

[2] = system: sub-genomic HCV NS3-NS5B replicon of genotype 1b (ET subline) in Huh-7 cells; test: Replicon Luciferase Cell Based Assay, genotype 1b; design: species or system HCV genotype 1b; conditions: Hepatitis C virus, Huh-7, 48 h, read-out: Genotype 1b (IC50 μM)
Procedure: as §1, §2, §3

Row | SMILES | IC50 [1] | IC50 [2]
1 | COc1ccc2c(O[C@@H]3C[C@H]4C(=O)N[C@]5(C(=O)NS(=O)(=O)C6CC6)C[C@H]5/C=C\CCCCC[C@H](NC(=O)N(C)C)C(=O)N4C3)cc(-c3nc(C4CC4)cs3)nc2c1C [Example 6, (2R,6S,13aS,14aR,16aS)-N-(cyclopropylsulfonyl)-2-{[2-(4-cyclopropyl-1,3-thiazol-2-yl)-8-methyl-7-(methyloxy)-4-quinolinyl]oxy}-6-{[(dimethylamino)carbonyl]amino}-5,16-dioxo-1,2,3,6,7,8,9,10,11,13a,14,15,16,16a-tetradecahydrocyclopropa[e]pyrrolo[1,2-a][1,4]diazacyclopentadecine-14a(5H)-carboxamide] | < 0.01 µM | < 0.01 µM
2 | COc1ccc2c(O[C@@H]3C[C@H]4C(=O)N[C@]5(C(=O)NS(=O)(=O)C6CC6)C[C@H]5/C=C\CCCCC[C@H](NC(=O)N5CCOCC5)C(=O)N4C3)cc(-c3nc(C(C)C)cs3)nc2c1C [Example 14] | < 0.01 µM | < 0.01 µM
3 | C=C1CCN(C(=O)N[C@H]2CCCCC/C=C\[C@@H]3C[C@@]3(C(=O)NS(=O)(=O)C3CC3)NC(=O)[C@@H]3C[C@@H](Oc4cc(-c5nc(C6CC6)cs5)nc5c(Cl)c(OC)ccc45)CN3C2=O)CC1 [Example 27, (2R,6S,13aS,14aR,16aS,Z)-2-(8-chloro-2(4-cyclopropylthiazol-2-yl)-7-methoxyquinolin-4-yloxy)-N-(cyclopropylsulfonyl)-6-(4-methylenepiperidine-1-carboxamido)-5,16-dioxo-1,2,3,5,6,7,8,9,10,11,13a,14,14a,15,16,16a-hexadecahydrocyclopropa[e]pyrrolo[1,2-a][1,4]diazacyclopentadecine-14a-carboxamide] | < 0.01 µM | < 0.01 µM
4 | COc1ccc2c(O[C@@H]3C[C@H]4C(=O)N[C@]5(C(=O)NS(=O)(=O)C6CC6)C[C@H]5/C=C\CCCCC[C@H](NC(=O)N5CCC(N6CCCC6)CC5)C(=O)N4C3)cc(-c3nc(C(C)C)cs3)nc2c1C [Example 21, (2R,6S,13aS,14aR,16aS)-N-(cyclopropylsulfonyl)-2-{[8-methyl-2-[4-(1-methylethyl)-1,3-thiazol-2-yl]-7-(methyloxy)-4-quinolinyl]oxy}-5,16-dioxo-6-({[4-(1-pyrrolidinyl)-1-piperidinyl]carbonyl}amino)-1,2,3,6,7,8,9,10,11,13a,14,15,16,16a-tetradecahydrocyclopropa[e]pyrrolo[1,2-a][1,4]diazacyclopentadecine-14a(5H)-carboxamide] | < 0.01 µM | < 0.01 µM
5 | COc1ccc2c(O[C@@H]3C[C@H]4C(=O)N[C@]5(C(=O)NS(=O)(=O)C6CC6)C[C@H]5/C=C\CCCCC[C@H](NC(=O)N5CCCC5)C(=O)N4C3)cc(-c3nc(C4CC4)cs3)nc2c1C [Example 30, (2R,6S,13a-5,1-aR,16aS,Z)-N-(cyclopropylsulfonyl)-2-(2-(4-cyclopropylthiazol-2-yl)-7-methoxy-8-methylquinolin-4-yloxy)-5,16-dioxo-6-(pyrrolidine-1-carboxamido)-1,2,3,5,6,7,8,9,10,11,13a,14,14a,15,16,16a-hexadecahydrocyclopropa[e]pyrrolo[1,2-a][1,4]diazacyclopentadecine-14a-carboxamide] | < 0.01 µM | < 0.01 µM
6 | COc1ccc2c(O[C@@H]3C[C@H]4C(=O)N[C@]5(C(=O)NS(=O)(=O)C6CC6)C[C@H]5/C=C\CCCCC[C@H](NC(=O)N5CC6CCCC6C5)C(=O)N4C3)cc(-c3nc(C(C)C)cs3)nc2c1C (stereo partly drawn) [Example 24, (2R,6S,13aS,14aR,16aS)-N-(cyclopropylsulfonyl)-6-[(hexahydrocyclopenta[c]pyrrol-2(1H)-ylcarbonyl)amino]-2-{[8-methyl-2-[4-(1-methylethyl)-1,3-thiazol-2-yl]-7-(methyloxy)-4-quinolinyl]oxy}-5,16-dioxo-1,2,3,6,7,8,9,10,11,13a,14,15,16,16a-tetradecahydrocyclopropa[e]pyrrolo[1,2-a][1,4]diazacyclopentadecine-14a(5H)-carboxamide] | < 0.01 µM | < 0.01 µM
7 | CCN(CC)C(=O)N[C@H]1CCCCC/C=C\[C@@H]2C[C@@]2(C(=O)NS(=O)(=O)C2CC2)NC(=O)[C@@H]2C[C@@H](Oc3cc(-c4nc(C5CC5)cs4)nc4c(Cl)c(OC)ccc34)CN2C1=O [Example 4, (2R,6S,13aS,14aR,16aS,Z)-2-(8-chloro-2-(4-cyclopropylthiazol-2-yl)-7-methoxyquinolin-4-yloxy)-N-(cyclopropylsulfonyl)-6-(3,3-diethylureido)-5,16-dioxo-1,2,3,5,6,7,8,9,10,11,13a,14,14a,15,16,16a-hexadecahydrocyclopropa[e]pyrrolo[1,2-a][1,4]diazacyclopentadecine-14a-carboxamide] | < 0.01 µM | < 0.01 µM
8 | COc1ccc2c(O[C@@H]3C[C@H]4C(=O)N[C@]5(C(=O)NS(=O)(=O)C6CC6)C[C@H]5/C=C\CCCCC[C@H](NC(=O)N5CCN(C6CCCC6)CC5)C(=O)N4C3)cc(-c3nc(C(C)C)cs3)nc2c1C [Example 13, (2R,6S,13aS,14aR,16aS)-6-{[(4-cyclopentyl-1-piperazinyl)carbonyl]amino}-N-(cyclopropylsulfonyl)-2-{[8-methyl-2-[4-(1-methylethyl)-1,3-thiazol-2-yl]-7-(methyloxy)-4-quinolinyl]oxy}-5,16-dioxo-1,2,3,6,7,8,9,10,11,13a,14,15,16,16a-tetradecahydrocyclopropa[e]pyrrolo[1,2-a][1,4]diazacyclopentadecine-14a(5H)-carboxamide] | < 0.01 µM | < 0.01 µM
9 | COc1ccc2c(O[C@@H]3C[C@H]4C(=O)N[C@]5(C(=O)NS(=O)(=O)C6CC6)C[C@H]5/C=C\CCCCC[C@H](NC(=O)Nc5ccccc5)C(=O)N4C3)cc(-c3nc(C(C)C)cs3)nc2c1C [Example 1, (2R,6S,13aS,14aR,16aS)-N-(cyclopropylsulfonyl)-2-{[8-methyl-2-[4-(1-methylethyl)-1,3-thiazol-2-yl]-7-(methyloxy)-4-quinolinyl]oxy}-5,16-dioxo-6-{[(phenylamino)carbonyl]amino}-1,2,3,6,7,8,9,10,11,13a,14,15,16,16a-tetradecahydrocyclopropa[e]pyrrolo[1,2-a][1,4]diazacyclopentadecine-14a(5H)-carboxamide] | < 0.01 µM | < 0.01 µM
10 | CCN(CC)C(=O)N[C@H]1CCCCC/C=C\[C@@H]2C[C@@]2(C(=O)NS(=O)(=O)C2CC2)NC(=O)[C@@H]2C[C@@H](Oc3cc(-c4nc(C(C)C)cs4)nc4c(C)c(OC)ccc34)CN2C1=O [Example 2, (2R,6S,13aS,14aR,16aS)-N-(cyclopropylsulfonyl)-6-{[(diethylamino)carbonyl]amino}-2-{[8-methyl-2-[4-(1-methylethyl)-1,3-thiazol-2-yl]-7-(methyloxy)-4-quinolinyl]oxy}-5,16-dioxo-1,2,3,6,7,8,9,10,11,13a,14,15,16,16a-tetradecahydrocyclopropa[e]pyrrolo[1,2-a][1,4]diazacyclopentadecine-14a(5H)-carboxamide] | < 0.01 µM | < 0.01 µM
